# Assay results as given in ChEMBL document CHEMBL3877284, “Discovery of novel dengue virus NS5 methyltransferase non-nucleoside inhibitors by fragment-based drug design” (Eur J Med Chem, 2017).
# Calls of active or inactive are those of the source. The calls are words filed in the database; no cut-off is given here.
# Experiments:
# [1] = Inhibition of Dengue virus 3 NS5 2'-O-MTase activity assessed as reduction in [3H]AdoMet transfer to 7MeGpppAC4 capped RNA substrate after 30 mins by microbeta liquid scintillation counting method; parameters: species or system dengue virus type 3
# [2] = Inhibition of Dengue virus 3 NS5 N7-MTase activity assessed as reduction in [3H]AdoMet transfer to GpppA2'OMe-RNA74 substrate after 30 mins by microbeta liquid scintillation counting method; parameters: species or system dengue virus type 3
# [3] = Inhibition of West Nile virus Uganda strain B956 NS5 2'-O-MTase activity assessed as reduction in [3H]AdoMet transfer to 7MeGpppAC4 capped RNA substrate after 30 mins by microbeta liquid scintillation counting method
# [4] = tested on: dengue virus type 3; assay: Binding affinity to Dengue virus 3 NS5 methyl transferase domain by thermal shift assay
# [5] = Cytotoxicity against African green monkey Vero E6 cells up to 100 uM; format: toxicity, cell-based; settings: chlorocebus sabaeus
IC50 [1],IC50 [2],IC50 [3],Activity [4],SMILES,Activity [5]
368 µM,> 1000 µM,190 µM,,Nc1cc(Cl)ccc1NC(=O)Nc1ccc(S(=O)(=O)Oc2ccc(C(=O)O)cc2)cc1,
452 µM,> 1000 µM,182 µM,,Nc1cc(Cl)ccc1NC(=O)Nc1cccc(S(=O)(=O)Nc2ccc(C(=O)O)cc2)c1,
9000 µM,,,Active,Nc1ccc(C(F)(F)F)cc1N,
2800 µM,,,Active,Cc1ccc(C(=O)O)c(N)c1,
369 µM,> 1000 µM,120 µM,,Nc1cc(Cl)ccc1NC(=O)Nc1cccc(S(=O)(=O)Oc2ccc(C(=O)O)cc2)c1,
110 µM,742 µM,71 µM,,Nc1cc(C(F)(F)F)ccc1NC(=O)Nc1ccc(S(=O)(=O)Nc2ccc(C(=O)O)cc2)cc1,Non-Toxic
91 µM,1120 µM,51 µM,,Nc1cc(C(F)(F)F)ccc1NC(=O)Nc1cccc(S(=O)(=O)Nc2ccc(C(=O)O)cc2)c1,Non-Toxic
435 µM,> 1000 µM,299 µM,,Nc1cc(Cl)ccc1NC(=O)Nc1ccc(S(=O)(=O)Nc2ccc(C(=O)O)cc2)cc1,

SMILES,IC50 [1],IC50 [2],IC50 [3],Activity [4],Activity [5]
Cc1cc(N)c(N)cc1Cl,9300 µM,,,Active,
